Results published in US9296758B2, “2-quinolinyl-acetic acid derivatives as HIV antiviral compounds” (GILEAD SCIENCES, INC., priority 2010, dated 2016).
pEC50: −log10 of the molar value.

Tested on: HIV-IIIb
Assay: Test A: Antiviral Assays in MT4 Cells
Assay type: cell-based
Settings: Human immunodeficiency virus 1, IIIB, MT4, 120 h, MT-4 cells infected with HIV-IIIb (0.004 m.o.i.), 5 days of incubation, CellTiter-Glo chemiluminescence readout
Method: Test A: Antiviral Assays in MT4 Cells For the antiviral assay utilizing MT-4 cells, 0.4 μL of 189X test concentration of 3-fold serially diluted compound in DMSO was added to 40 μL of cell growth medium (RPMI 1640, 10% FBS, 1% penicillin/Streptomycin, 1% L-Glutamine, 1% HEPES) in each well of 384-well assay plates (10 concentrations) in quadruplicate. 1 mL aliquots of 2×10e6 MT-4 cells are pre-infected for 1 and 3 hrs respectively, @ 37° C. with 25 μL (MT4) or of either cell growth medium (mock-infected) or a fresh 1:250 dilution of an HIV-IIIb concentrated ABI stock (0.004 m.o.i. for MT4 cells). Infected and uninfected cells are diluted in cell growth medium and 35 uL of 2000 (for MT4) cells is added to each well of the assay plates. Assay plates were then incubated in a 37° C. incubator. After 5 days of incubation, 25 μl of 2× concentrated CellTiter-Glo™ Reagent (catalog #G7573, Promega Biosciences, Inc., Madison, Wis.) was added to each well of the assay plate. Cell lysis was carried out by incubating at room temperature for 2-3 min and then chemiluminescence was read using the Envision reader (PerkinElmer).

Structure (SMILES) | pEC50
Cc1cc2nc(C#Cc3ccccc3)ccc2c(-c2ccc3c4c(ccnc24)CCO3)c1[C@H](OC(C)(C)C)C(=O)O (atropisomer, axis not shown) [Compound 40, (S)-2-tert-butoxy-2-((R)-5-(2,3-dihydropyrano[4,3,2-de]quinolin-7-yl)-7-methyl-2-(phenylethynyl)quinolin-6-yl)acetic acid] | 7.29
Cc1cc2nc(CCc3ccccc3)ccc2c(-c2ccc3c4c(ccnc24)CCO3)c1[C@H](OC(C)(C)C)C(=O)O (atropisomer, axis not shown) [Compound 41, (S)-2-tert-butoxy-2-((R)-5-(2,3-dihydropyrano[4,3,2-de]quinolin-7-yl)-7-methyl-2-phenethylquinolin-6-yl)acetic acid] | 7.59
Cc1cc2nc(C#CC3CC3)ccc2c(-c2ccc3c4c(ccnc24)CCO3)c1[C@H](OC(C)(C)C)C(=O)O (atropisomer, axis not shown) [Compound 42, (S)-2-tert-butoxy-2-((R)-2-(cyclopropylethynyl)-5-(2,3-dihydropyrano[4,3,2-de]quinolin-7-yl)-7-methylquinolin-6-yl)acetic acid] | 7.34
Cc1cc2nc(CCC3CC3)ccc2c(-c2ccc3c4c(ccnc24)CCO3)c1[C@H](OC(C)(C)C)C(=O)O (atropisomer, axis not shown) [Compound 43, (S)-2-tert-Butoxy-2-((R)-2-(2-cyclopropylethyl)-5-(2,3-dihydropyrano[4,3,2-de]quinolin-7-yl)-7-methylquinolin-6-yl)acetic acid] | 7.57
CC#Cc1ccc2c(-c3ccc4c5c(ccnc35)CCO4)c([C@H](OC(C)(C)C)C(=O)O)c(C)cc2n1 (atropisomer, axis not shown) [Compound 44, (S)-2-tert-Butoxy-2-((R)-5-(2,3-dihydropyrano[4,3,2-de]quinolin-7-yl)-7-methyl-2-(prop-1-ynyl)quinolin-6-yl)acetic acid] | 7.74
C#Cc1ccc2c(-c3ccc4c5c(ccnc35)CCO4)c([C@H](OC(C)(C)C)C(=O)O)c(C)cc2n1 (atropisomer, axis not shown) [Compound 45, (S)-2-tert-butoxy-2-((R)-5-(2,3-dihydropyrano[4,3,2-de]quinolin-7-yl)-2-ethynyl-7-methylquinolin-6-yl)acetic acid] | 4.54
Cc1cc2nc(C3CCC3)ccc2c(-c2ccc3c4c(ccnc24)CCO3)c1[C@H](OC(C)(C)C)C(=O)O (atropisomer, axis not shown) [Compound 47, (S)-2-tert-butoxy-2-((R)-2-cyclobutyl-5-(2,3-dihydropyrano[4,3,2-de]quinolin-7-yl)-7-methylquinolin-6-yl)acetic acid] | 7.85
C=CCCc1ccc2c(-c3ccc4c5c(ccnc35)CCO4)c([C@H](OC(C)(C)C)C(=O)O)c(C)cc2n1 (atropisomer, axis not shown) [Compound 48, (S)-2-((R)-2-(but-3-enyl)-5-(2,3-dihydropyrano[4,3,2-de]quinolin-7-yl)-7-methylquinolin-6-yl)-2-tert-butoxyacetic acid] | 7.59
Cc1cc2nc(CC(C)C)ccc2c(-c2ccc3c4c(ccnc24)CCO3)c1[C@H](OC(C)(C)C)C(=O)O (atropisomer, axis not shown) [Compound 50, (S)-2-tert-butoxy-2-((R)-5-(2,3-dihydropyrano[4,3,2-de]quinolin-7-yl)-2-isobutyl-7-methylquinolin-6-yl)acetic acid] | 7.62
Cc1cc2nc(C3CCCC3)ccc2c(-c2ccc3c4c(ccnc24)CCO3)c1[C@H](OC(C)(C)C)C(=O)O (atropisomer, axis not shown) [Compound 51, (S)-2-tert-Butoxy-2-((R)-2-cyclopentyl-5-(2,3-dihydropyrano[4,3,2-de]quinolin-7-yl)-7-methylquinolin-6-yl)acetic acid] | 7.52
Cc1cc2nc(C3CCCCC3)ccc2c(-c2ccc3c4c(ccnc24)CCO3)c1[C@H](OC(C)(C)C)C(=O)O (atropisomer, axis not shown) [Compound 52, (S)-2-tert-Butoxy-2-((R)-2-cyclohexyl-5-(2,3-dihydropyrano[4,3,2-de]quinolin-7-yl)-7-methylquinolin-6-yl)acetic acid] | 7.60
Cc1cc2nc(Cc3ccccc3)ccc2c(-c2ccc3c4c(ccnc24)CCO3)c1[C@H](OC(C)(C)C)C(=O)O (atropisomer, axis not shown) [Compound 53, (S)-2-((R)-2-Benzyl-5-(2,3-dihydropyrano[4,3,2-de]quinolin-7-yl)-7-methylquinolin-6-yl)-2-tert-butoxyacetic acid] | 6.44
Cc1cc2nc(-c3cccc(Cl)c3)ccc2c(-c2ccc3c4c(ccnc24)CCO3)c1[C@H](OC(C)(C)C)C(=O)O (atropisomer, axis not shown) [Compound 55, (S)-2-tert-Butoxy-2-((R)-2-(3-chlorophenyl)-5-(2,3-dihydropyrano[4,3,2-de]quinolin-7-yl)-7-methylquinolin-6-yl)acetic acid] | 7.39
Cc1cc2nc(-c3ccc(Cl)cc3)ccc2c(-c2ccc3c4c(ccnc24)CCO3)c1[C@H](OC(C)(C)C)C(=O)O (atropisomer, axis not shown) [Compound 56, (S)-2-tert-Butoxy-2-((R)-2-(4-chlorophenyl)-5-(2,3-dihydropyrano[4,3,2-de]quinolin-7-yl)-7-methylquinolin-6-yl)acetic acid] | 7.40
Cc1cc2nc(-c3ccccc3)ccc2c(-c2ccc3c4c(ccnc24)CCO3)c1[C@H](OC(C)(C)C)C(=O)O (atropisomer, axis not shown) [Compound 57, (S)-2-tert-Butoxy-2-((R)-5-(2,3-dihydropyrano[4,3,2-de]quinolin-7-yl)-7-methyl-2-phenylquinolin-6-yl)acetic acid] | 7.70
Cc1cc2nc(C3CC3)ccc2c(-c2ccc3c4c(ccnc24)CCO3)c1[C@H](OC(C)(C)C)C(=O)O (atropisomer, axis not shown) [Compound 58, (S)-2-tert-Butoxy-2-((R)-2-cyclopropyl-5-(2,3-dihydropyrano[4,3,2-de]quinolin-7-yl)-7-methylquinolin-6-yl)acetic acid] | 7.85
Cc1cc2c(ccc3nc(-c4ccccc4)cn32)c(-c2ccc3c4c(ccnc24)CCO3)c1[C@H](OC(C)(C)C)C(=O)O (atropisomer, axis not shown) [Compound 61, (S)-2-tert-Butoxy-2-((R)-6-(2,3-dihydropyrano[4,3,2-de]quinolin-7-yl)-8-methyl-2-phenylimidazo[1,2-a]quinolin-7-yl)acetic acid] | 6.92
Cc1cc2c(ccc(=O)n2Cc2ccccc2)c(-c2ccc3c4c(ccnc24)CCO3)c1[C@H](OC(C)(C)C)C(=O)O (atropisomer, axis not shown) [Compound 68, (S)-2-((R)-1-benzyl-5-(2,3-dihydropyrano[4,3,2-de]quinolin-7-yl)-7-methyl-2-oxo-1,2-dihydroquinolin-6-yl)-2-tert-butoxyacetic acid] | 4.54
Cc1cc2nc(-c3ccn[nH]3)ccc2c(-c2ccc3c4c(ccnc24)CCO3)c1[C@H](OC(C)(C)C)C(=O)O (atropisomer, axis not shown) [Compound 71, (S)-2-tert-butoxy-2-((R)-5-(2,3-dihydropyrano[4,3,2-de]quinolin-7-yl)-7-methyl-2-(1H-pyrazol-5-yl)quinolin-6-yl)acetic acid] | 6.93
Cc1cc2nc(-c3cncnc3)ccc2c(-c2ccc3c4c(ccnc24)CCO3)c1[C@H](OC(C)(C)C)C(=O)O (atropisomer, axis not shown) [Compound 72, (S)-2-tert-Butoxy-2-((R)-5-(2,3-dihydropyrano[4,3,2-de]quinolin-7-yl)-7-methyl-2-(pyrimidin-5-yl)quinolin-6-yl)acetic acid] | 6.71
Cc1cc2nc(-c3ccncc3)ccc2c(-c2ccc3c4c(ccnc24)CCO3)c1[C@H](OC(C)(C)C)C(=O)O (atropisomer, axis not shown) [Compound 75, (S)-2-tert-Butoxy-2-((R)-5-(2,3-dihydropyrano[4,3,2-de]quinolin-7-yl)-7-methyl-2-(pyridin-4-yl)quinolin-6-yl)acetic acid] | 7.42
Cc1cc2nc(-c3cn[nH]c3)ccc2c(-c2ccc3c4c(ccnc24)CCO3)c1[C@H](OC(C)(C)C)C(=O)O (atropisomer, axis not shown) [Compound 78, (S)-2-tert-Butoxy-2-((R)-5-(2,3-dihydropyrano[4,3,2-de]quinolin-7-yl)-7-methyl-2-(1H-pyrazol-4-yl)quinolin-6-yl)acetic acid] | 6.79
Cc1cc2nc(-c3ccccn3)ccc2c(-c2ccc3c4c(ccnc24)CCO3)c1[C@H](OC(C)(C)C)C(=O)O (atropisomer, axis not shown) [Compound 80, (S)-2-tert-Butoxy-2-((R)-5-(2,3-dihydropyrano[4,3,2-de]quinolin-7-yl)-7-methyl-2-(pyridin-2-yl)quinolin-6-yl)acetic acid] | 7.28
Cc1cc2nc(-c3cccnc3)ccc2c(-c2ccc3c4c(ccnc24)CCO3)c1[C@H](OC(C)(C)C)C(=O)O (atropisomer, axis not shown) [Compound 81, (S)-2-tert-butoxy-2-((R)-5-(2,3-dihydropyrano[4,3,2-de]quinolin-7-yl)-7-methyl-2-(pyridin-3-yl)quinolin-6-yl)acetic acid] | 7.16
